Here are results for 22 compounds from ChEMBL document CHEMBL1146979, “Structure-activity relationship of thiopyrimidines as mGluR5 antagonists” (Bioorg Med Chem Lett, 2006).

Series [1] concerns the target Metabotropic glutamate receptor 5 (Homo sapiens, UniProt P41594). Nature of the series: Inhibition of glutamate-induced calcium influx in human mGluR5d by FLIPR. It is filed as functional.
Series [2] addresses Metabotropic glutamate receptor 7 (Homo sapiens) (UniProt Q14831). Nature of the series: Activity against mGluR7.
The target in series [3] is Metabotropic glutamate receptor 1 (Homo sapiens) (UniProt Q13255). Nature of the series: Activity against mGluR1.
Series [4] in a line: Clearance in rat liver microsomes. It is filed as ADME, Microsome. Background: Liver microsomes are a subcellular fraction often used to study metabolism.
Series [5] addresses Metabotropic glutamate receptor 2 (Homo sapiens) (UniProt Q14416). The series can be described thus: Activity against mGluR2.
Series [6] deals with Metabotropic glutamate receptor 3 (Homo sapiens) (UniProt Q14832). The series can be described thus: Activity against mGluR3.
Series [7] deals with Metabotropic glutamate receptor 8 (Homo sapiens) (UniProt O00222). The series can be described thus: Activity against mGluR8.
Series [8] is described as follows: Clearance in human liver microsomes. Type of series: ADME, Microsome.
Series [9] addresses Metabotropic glutamate receptor 4 (Homo sapiens) (UniProt Q14833). Nature of the series: Activity against mGluR4.
Series [10] addresses Metabotropic glutamate receptor 6 (Homo sapiens) (UniProt O15303). The series can be described thus: Activity against mGluR6.

Molecules are shown by their SMILES. Bounds are passed on as bounds.

Sequence of Metabotropic glutamate receptor 5 (P41594 whole entry): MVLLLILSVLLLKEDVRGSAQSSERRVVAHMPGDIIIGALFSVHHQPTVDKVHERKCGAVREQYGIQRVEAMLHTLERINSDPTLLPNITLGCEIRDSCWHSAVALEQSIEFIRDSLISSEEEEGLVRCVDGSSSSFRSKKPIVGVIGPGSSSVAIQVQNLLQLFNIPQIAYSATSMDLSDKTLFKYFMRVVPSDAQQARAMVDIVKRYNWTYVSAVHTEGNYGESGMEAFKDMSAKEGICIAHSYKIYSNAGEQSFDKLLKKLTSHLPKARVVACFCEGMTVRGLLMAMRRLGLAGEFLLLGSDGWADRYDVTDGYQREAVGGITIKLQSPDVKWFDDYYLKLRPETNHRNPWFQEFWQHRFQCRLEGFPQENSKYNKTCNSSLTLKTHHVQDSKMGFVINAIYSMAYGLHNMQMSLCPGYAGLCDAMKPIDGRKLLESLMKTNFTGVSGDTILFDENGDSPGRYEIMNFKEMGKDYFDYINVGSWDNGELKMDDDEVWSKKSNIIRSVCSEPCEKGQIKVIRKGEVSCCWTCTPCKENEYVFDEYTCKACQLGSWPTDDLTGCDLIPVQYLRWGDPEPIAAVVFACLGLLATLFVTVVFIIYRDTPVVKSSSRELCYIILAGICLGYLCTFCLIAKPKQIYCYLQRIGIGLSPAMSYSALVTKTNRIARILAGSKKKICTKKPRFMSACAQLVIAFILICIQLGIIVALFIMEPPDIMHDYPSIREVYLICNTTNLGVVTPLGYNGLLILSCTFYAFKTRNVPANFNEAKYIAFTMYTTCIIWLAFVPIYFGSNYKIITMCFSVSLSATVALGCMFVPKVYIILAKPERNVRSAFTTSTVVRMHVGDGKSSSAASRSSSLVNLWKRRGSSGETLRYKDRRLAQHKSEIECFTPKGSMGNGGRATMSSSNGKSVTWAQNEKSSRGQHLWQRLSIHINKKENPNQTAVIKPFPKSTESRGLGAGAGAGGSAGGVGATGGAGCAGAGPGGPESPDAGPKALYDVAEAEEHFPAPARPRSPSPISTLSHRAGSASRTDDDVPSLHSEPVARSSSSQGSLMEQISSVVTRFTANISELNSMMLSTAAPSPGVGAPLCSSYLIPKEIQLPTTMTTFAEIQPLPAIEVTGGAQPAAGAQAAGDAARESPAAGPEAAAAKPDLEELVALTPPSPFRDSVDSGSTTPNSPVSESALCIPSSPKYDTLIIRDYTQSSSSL
Sequence of Metabotropic glutamate receptor 3 (Homo sapiens) (Q14832 23-879 limits assumed): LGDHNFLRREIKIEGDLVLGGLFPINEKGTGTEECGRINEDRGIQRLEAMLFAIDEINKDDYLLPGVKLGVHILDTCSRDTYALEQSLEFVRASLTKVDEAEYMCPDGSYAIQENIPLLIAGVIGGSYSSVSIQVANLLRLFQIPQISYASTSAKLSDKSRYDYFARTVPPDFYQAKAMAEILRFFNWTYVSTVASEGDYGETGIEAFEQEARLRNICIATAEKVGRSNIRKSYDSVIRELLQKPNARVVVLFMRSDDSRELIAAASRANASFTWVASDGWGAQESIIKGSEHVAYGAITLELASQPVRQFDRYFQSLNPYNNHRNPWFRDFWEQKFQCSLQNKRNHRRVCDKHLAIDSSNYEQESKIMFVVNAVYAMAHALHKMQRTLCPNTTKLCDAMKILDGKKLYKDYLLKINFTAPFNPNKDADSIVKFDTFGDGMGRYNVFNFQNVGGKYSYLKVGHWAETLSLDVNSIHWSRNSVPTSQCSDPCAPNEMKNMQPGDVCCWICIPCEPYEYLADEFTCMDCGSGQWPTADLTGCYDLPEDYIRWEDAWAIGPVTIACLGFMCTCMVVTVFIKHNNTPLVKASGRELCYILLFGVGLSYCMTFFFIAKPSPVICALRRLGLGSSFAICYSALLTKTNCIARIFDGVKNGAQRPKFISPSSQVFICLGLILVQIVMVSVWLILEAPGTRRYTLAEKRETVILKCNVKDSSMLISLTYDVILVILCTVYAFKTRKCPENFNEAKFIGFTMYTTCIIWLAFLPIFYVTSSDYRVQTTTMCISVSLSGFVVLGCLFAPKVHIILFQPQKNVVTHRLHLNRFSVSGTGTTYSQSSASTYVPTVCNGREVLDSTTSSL
Sequence of Metabotropic glutamate receptor 6 (Homo sapiens) (O15303 whole entry): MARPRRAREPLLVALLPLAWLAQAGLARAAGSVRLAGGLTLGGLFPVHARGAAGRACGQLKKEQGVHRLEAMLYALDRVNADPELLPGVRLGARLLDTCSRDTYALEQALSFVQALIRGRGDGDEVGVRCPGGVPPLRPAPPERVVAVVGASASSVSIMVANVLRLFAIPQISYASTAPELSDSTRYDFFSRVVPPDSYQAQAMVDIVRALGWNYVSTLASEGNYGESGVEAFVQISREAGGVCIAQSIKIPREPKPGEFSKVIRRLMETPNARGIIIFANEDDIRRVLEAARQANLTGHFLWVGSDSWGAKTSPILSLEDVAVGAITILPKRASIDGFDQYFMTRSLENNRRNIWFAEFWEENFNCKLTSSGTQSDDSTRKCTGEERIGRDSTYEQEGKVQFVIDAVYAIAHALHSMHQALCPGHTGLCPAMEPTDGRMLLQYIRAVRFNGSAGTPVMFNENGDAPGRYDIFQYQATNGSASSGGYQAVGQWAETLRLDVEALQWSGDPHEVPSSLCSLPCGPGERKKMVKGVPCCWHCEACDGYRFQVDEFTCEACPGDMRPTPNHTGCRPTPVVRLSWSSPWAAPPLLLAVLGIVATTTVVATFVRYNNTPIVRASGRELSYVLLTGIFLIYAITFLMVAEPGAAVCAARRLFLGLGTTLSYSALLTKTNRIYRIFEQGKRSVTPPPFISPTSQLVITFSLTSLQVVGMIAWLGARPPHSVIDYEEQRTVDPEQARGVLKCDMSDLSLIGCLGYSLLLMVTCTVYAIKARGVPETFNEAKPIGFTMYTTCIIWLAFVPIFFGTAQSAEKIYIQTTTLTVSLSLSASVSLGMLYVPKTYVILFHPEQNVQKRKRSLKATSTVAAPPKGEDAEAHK
Sequence of Metabotropic glutamate receptor 4 (Homo sapiens) (Q14833 whole entry): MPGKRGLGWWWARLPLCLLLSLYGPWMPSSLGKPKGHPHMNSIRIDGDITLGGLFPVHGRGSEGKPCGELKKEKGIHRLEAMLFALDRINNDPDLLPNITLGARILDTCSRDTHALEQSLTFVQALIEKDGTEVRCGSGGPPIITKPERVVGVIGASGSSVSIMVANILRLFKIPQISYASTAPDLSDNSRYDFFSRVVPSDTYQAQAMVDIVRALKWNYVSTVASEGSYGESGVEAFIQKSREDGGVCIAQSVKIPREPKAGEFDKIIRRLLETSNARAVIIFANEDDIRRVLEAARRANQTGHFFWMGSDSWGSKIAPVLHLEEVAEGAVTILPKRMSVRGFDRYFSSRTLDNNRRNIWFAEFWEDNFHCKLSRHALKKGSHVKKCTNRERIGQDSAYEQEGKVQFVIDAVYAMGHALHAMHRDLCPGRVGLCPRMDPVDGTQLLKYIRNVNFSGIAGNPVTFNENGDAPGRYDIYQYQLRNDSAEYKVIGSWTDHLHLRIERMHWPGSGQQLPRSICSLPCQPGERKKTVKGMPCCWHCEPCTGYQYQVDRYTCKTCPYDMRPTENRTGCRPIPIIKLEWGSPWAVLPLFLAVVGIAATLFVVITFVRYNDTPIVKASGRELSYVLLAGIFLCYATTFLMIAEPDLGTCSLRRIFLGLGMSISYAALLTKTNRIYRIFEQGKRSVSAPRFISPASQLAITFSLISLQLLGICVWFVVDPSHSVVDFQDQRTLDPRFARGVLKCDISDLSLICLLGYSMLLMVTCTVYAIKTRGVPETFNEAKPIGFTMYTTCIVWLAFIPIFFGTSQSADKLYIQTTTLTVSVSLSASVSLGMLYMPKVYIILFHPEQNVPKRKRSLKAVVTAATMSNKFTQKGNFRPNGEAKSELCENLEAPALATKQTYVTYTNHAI
Sequence of Metabotropic glutamate receptor 2 (Homo sapiens) (Q14416 19-872 limits assumed): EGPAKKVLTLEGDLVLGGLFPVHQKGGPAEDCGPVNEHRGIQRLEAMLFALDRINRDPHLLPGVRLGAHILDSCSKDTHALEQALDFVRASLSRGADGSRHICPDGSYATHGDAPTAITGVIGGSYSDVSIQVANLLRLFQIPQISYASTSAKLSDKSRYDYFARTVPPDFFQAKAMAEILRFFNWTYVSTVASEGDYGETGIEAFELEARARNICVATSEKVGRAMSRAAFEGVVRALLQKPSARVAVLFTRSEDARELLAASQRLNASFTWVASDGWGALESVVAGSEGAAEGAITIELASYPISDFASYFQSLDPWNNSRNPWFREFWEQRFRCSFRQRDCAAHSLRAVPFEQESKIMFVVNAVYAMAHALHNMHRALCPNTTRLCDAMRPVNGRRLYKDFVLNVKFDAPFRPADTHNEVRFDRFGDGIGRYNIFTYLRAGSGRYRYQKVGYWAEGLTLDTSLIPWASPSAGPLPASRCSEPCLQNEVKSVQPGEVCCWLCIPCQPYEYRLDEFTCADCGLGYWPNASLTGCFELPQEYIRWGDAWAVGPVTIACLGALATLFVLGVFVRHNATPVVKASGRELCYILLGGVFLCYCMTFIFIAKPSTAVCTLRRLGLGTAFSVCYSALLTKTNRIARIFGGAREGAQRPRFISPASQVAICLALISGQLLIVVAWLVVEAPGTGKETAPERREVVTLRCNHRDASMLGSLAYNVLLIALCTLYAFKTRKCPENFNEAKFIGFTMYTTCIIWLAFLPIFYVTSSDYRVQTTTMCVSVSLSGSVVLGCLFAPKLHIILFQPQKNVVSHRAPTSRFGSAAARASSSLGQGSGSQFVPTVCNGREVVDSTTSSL

As usually defined, the IC50 is the concentration that gives 50% inhibition. As for `Clc1ccc(Oc2ccnc(-c3ccccn3)n2)cc1`, the IC50 in [1] (read-out: IC50) was over 10 µM.

On to `Clc1ccc(Sc2cccc(-c3ccccn3)n2)cc1Cl`, for which the IC50 entry in series [1] is reported as “Not Active”.

For `Cc1cc(Sc2ccc(Cl)cc2)nc(-c2ccccn2)n1`, the IC50 in series [1] (read-out: IC50) came to 1.25 µM.

A word on the microsomal CLint: it is the capacity of the preparation to metabolise the compound, expressed as a volume cleared per time. A lower microsomal CLint goes with slow turnover. With `Fc1ccc(-c2nccc(Sc3ccc(Cl)c(Cl)c3)n2)nc1`, the Activity in [2], in [3], in [5], in series [6], in [7] and in series [9] was over 25 µM throughout. In [10], the Activity is over 25 µM. In addition, the microsomal CLint in [4] worked out at 90 µL/min/mg; in [8], 140 µL/min/mg. Also, the IC50 in [1] (read-out: IC50) stood at 0.08 µM.

On to `FC(F)(F)c1ccc(Sc2ccnc(-c3ccccn3)n2)cc1`, for which, in series [1] (read-out: IC50), the IC50 was found to be 0.21 µM.

Turning to `CC(=O)N(c1ccc(Cl)cc1)c1ccnc(-c2ccccn2)n1`, the IC50 in series [1] (read-out: IC50) is over 10 µM.

Take `Clc1ccc(Nc2ccnc(-c3ccccn3)n2)cc1`: the IC50 in series [1] (read-out: IC50) is over 10 µM.

`Cc1cccc(-c2nccc(Sc3ccc(Cl)c(Cl)c3)n2)n1`: the Activity in series [2], in series [3], in [5], in series [6], in series [7] and in series [9] was over 25 µM in each case. In series [10], this compound gave an Activity of over 25 µM. The IC50 in series [1] (read-out: IC50) was 0.39 µM.

In the case of `OC(c1ccc(Cl)cc1)c1ccnc(-c2ccccn2)n1` (stereo not given), the IC50 in [1] (read-out: IC50) was over 3 µM.

As to `Fc1ccc(Sc2ccnc(-c3ccccn3)n2)cc1F`, in series [1] (read-out: IC50), the IC50 is 1.52 µM.

As for `Clc1ccc(Sc2nccc(-c3ccccn3)n2)cc1Cl`, the IC50 result in series [1] is listed as “Not Active”.

On to `Clc1ccc(Sc2ccnc(-c3cccnc3)n2)cc1`, for which, in series [1] (read-out: IC50), the IC50 is over 10 µM.

`Clc1ccc(-c2ccnc(-c3ccccn3)n2)cc1Cl`: the IC50 entry in series [1] is given as “Not Active”.

Regarding `Cc1cccc(Sc2ccnc(-c3ccccn3)n2)c1`, the IC50 in series [1] (read-out: IC50) is 2.3 µM.

Take `Brc1cccc(Sc2ccnc(-c3ccccn3)n2)c1`: the IC50 in series [1] (read-out: IC50) was 2.86 µM.

Consider `Clc1ccc(Sc2ccnc(-c3ccncc3)n2)cc1`, for which, in series [1] (read-out: IC50), the IC50 was over 10 µM.

In the case of `Clc1cccc(Sc2ccnc(-c3ccccn3)n2)c1`, the IC50 in [1] (read-out: IC50) came out at 0.62 µM.

`Clc1ccc(Sc2ccnc(-c3ccccn3)n2)cc1Cl`: the microsomal CLint in series [4] came out at 120 µL/min/mg; in [8], 90 µL/min/mg. Moreover, in series [1] (read-out: IC50), the IC50 came to 0.09 µM.

For `Clc1ccc(Sc2ccnc(-c3ccccn3)c2)cc1Cl`, the IC50 in [1] (read-out: IC50) was determined as 2.37 µM.

`Clc1ccc(Sc2ccnc(-c3ccccn3)n2)cc1`: the IC50 in series [1] (read-out: IC50) stood at 0.32 µM.

In the case of `Clc1ccc(Cc2ccnc(-c3ccccn3)n2)cc1`, in series [1] (read-out: IC50), the IC50 is over 10 µM.

Turning to `FC(F)(F)c1cccc(Sc2ccnc(-c3ccccn3)n2)c1`, the IC50 in [1] (read-out: IC50) came to 0.55 µM.
